Laboratory results from ChEMBL document CHEMBL1201862, “PubChem BioAssay data set” (2004).
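Grown in 96-well plates, cells were treated for 48 hours with each compound at five concentrations. Insufficient inhibition: endpoint recorded as highest concentration tested. GI50 marks 50% less growth.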 The source made the active and inactive calls. Rule as the data show it: active = GI50 up to about 1.1 µM and inactive = higher.

What was measured:
Assay in all cases: NCI-60 cell line screen, 48 h
TK-10 = system: TK-10
SK-MEL-2 = system: SK-MEL-2
MDA-N = system: MDA-N
NCI-H522 = system: NCI-H522
CCRF-CEM = system: CCRF-CEM
ACHN = system: ACHN
SW-620 = system: SW-620
SR = system: SR
NCI-H23 = system: NCI-H23
NCI-H226 = system: NCI-H226
KM12 = system: KM12
SK-MEL-28 = system: SK-MEL-28
NCI/ADR-RES = system: NCI/ADR-RES
NCI-H460 = system: NCI-H460
SK-MEL-5 = system: SK-MEL-5
U-251 = system: U-251
OVCAR-4 = system: OVCAR-4
PC-3 = system: PC-3
MCF7 = system: MCF7
HOP-92 = system: HOP-92
OVCAR-8 = system: OVCAR-8
EKVX = system: EKVX
SF-539 = system: SF-539
786-0 = system: 786-0
RXF 393 = system: RXF 393
OVCAR-3 = system: OVCAR-3
RPMI-8226 = system: RPMI-8226
SF-268 = system: SF-268
HCC 2998 = system: HCC 2998
HT-29 = system: HT-29
HCT-116 = system: HCT-116
HOP-62 = system: HOP-62
MDA-MB-435 = system: MDA-MB-435
SF-295 = system: SF-295
K562 = system: K562
MOLT-4 = system: MOLT-4
HL-60 = system: HL-60
MDA-MB-231 = system: MDA-MB-231
CAKI-1 = system: CAKI-1
T47D = system: T47D
LOX IMVI = system: LOX IMVI
Hs-578T = system: Hs-578T
M14 = system: M14
A498 = system: A498
OVCAR-5 = system: OVCAR-5
UO-31 = system: UO-31
SK-OV-3 = system: SK-OV-3
IGROV-1 = system: IGROV-1
HCT-15 = system: HCT-15
DU-145 = system: DU-145
UACC-257 = system: UACC-257
COLO 205 = system: COLO 205
SN12C = system: SN12C
A549 = system: A549
Malme-3M = system: Malme-3M
SNB-75 = system: SNB-75
SNB-19 = system: SNB-19

Measured: GI50

CCCCC1Cc2ccccc2-c2n1c1ccccc1[n+]2C (configuration not stated)
95.5 µM: HCT-15
inactive: TK-10 22.8 µM | SK-MEL-2 8.53 µM | MDA-N 12.3 µM | NCI-H522 3.87 µM | CCRF-CEM 10.9 µM | ACHN 37.9 µM | SW-620 23.7 µM | SR 7.67 µM | NCI-H23 2.17 µM | NCI-H226 22.3 µM | KM12 9.55 µM | SK-MEL-28 11.3 µM | NCI/ADR-RES > 100 µM | NCI-H460 16.2 µM | SK-MEL-5 4.54 µM | U-251 3.1 µM | OVCAR-4 24.5 µM | PC-3 5.93 µM | MCF7 8.77 µM | HOP-92 20.4 µM | OVCAR-8 21.9 µM | EKVX 25.9 µM | SF-539 27.8 µM | 786-0 38.2 µM | RXF 393 13.3 µM | OVCAR-3 4.15 µM | RPMI-8226 1.94 µM | SF-268 11.4 µM | HCC 2998 5.47 µM | HT-29 10 µM | HCT-116 17.6 µM | HOP-62 24.9 µM | MDA-MB-435 10.3 µM | SF-295 6.92 µM | K562 2.49 µM | MOLT-4 12.3 µM | HL-60 3.99 µM | MDA-MB-231 22.2 µM | CAKI-1 > 100 µM | LOX IMVI 10.4 µM | Hs-578T 12.1 µM | M14 23.3 µM | A498 23.6 µM | OVCAR-5 42.9 µM | UO-31 66.7 µM | SK-OV-3 35.9 µM | IGROV-1 17.3 µM | DU-145 33.7 µM | UACC-257 1.87 µM
active: T47D 0.959 µM

CC(=O)c1c2c(cc3c1CC1(Cc4cc5c(cc4C1)C(=O)CCC5)C3)CCCC2 (configuration not stated)
3.94 µM: HCT-15
inactive: TK-10 16.5 µM | SK-MEL-2 2.88 µM | MDA-N 2.87 µM | NCI-H522 4.31 µM | CCRF-CEM 1.77 µM | ACHN 2.97 µM | COLO 205 4.86 µM | SN12C 13.4 µM | A549 > 21.5 µM | SW-620 5.25 µM | SR 2.48 µM | NCI-H23 6.12 µM | NCI-H226 3.5 µM | KM12 5.3 µM | SK-MEL-28 7.38 µM | NCI/ADR-RES 5 µM | NCI-H460 4.69 µM | SK-MEL-5 2.21 µM | U-251 10.8 µM | OVCAR-4 5.83 µM | PC-3 5.53 µM | MCF7 4.49 µM | Malme-3M 6.64 µM | HOP-92 2.55 µM | OVCAR-8 13.9 µM | EKVX > 23.8 µM | SF-539 4.17 µM | 786-0 5.66 µM | OVCAR-3 7.59 µM | RPMI-8226 3.48 µM | SF-268 8.07 µM | HCC 2998 12.5 µM | HT-29 3.25 µM | HCT-116 14.4 µM | HOP-62 5.09 µM | MDA-MB-435 2.94 µM | SNB-75 2.92 µM | SF-295 8.24 µM | K562 1.76 µM | MOLT-4 2.59 µM | HL-60 1.82 µM | MDA-MB-231 9.25 µM | CAKI-1 7.73 µM | T47D 5.38 µM | LOX IMVI 7.18 µM | SNB-19 13.8 µM | Hs-578T > 29.9 µM | M14 7.8 µM | OVCAR-5 35.2 µM | UO-31 9.4 µM | SK-OV-3 > 54.8 µM | IGROV-1 3.45 µM | DU-145 20.9 µM | UACC-257 3.34 µM
active: A498 0.822 µM
